Test system: uric acid levels
Experiment: Multiple ascending dose study every twelve hours for seven days, uric acid in healthy elderly subjects
Assay type: in vivo, human
Conditions: for uric acid, Mean: N=6
Experimental: A single-center, randomized, placebo-controlled, multiple ascending dose study evaluating a scyllo-inositol formulation was conducted in healthy elderly subjects. Approximately 32 healthy subjects (men and women) participated in […] consisting of 8 subjects each (i.e., 6 on active drug and 2 on placebo). Subjects received drug twice daily (BID) (every 12 hours) for 7 days. The dosage levels of the scyllo-inositol were 200 mg BID (400 mg/d total), 700 mg BID (1400 mg/d total), 1500 mg BID (3000 mg/d total) and 3000 mg BID (6000 mg/d total) given every 12 hours. Blood samples were collected from each subject on days 0, 4, 7, and 12.
Scyllo-inositol 200 and 500 mg capsules were bovine spongiform encephalopathy (BSE)/transmissible spongiform encephalopathy (TSE)-free soft gelatin, white, opaque capsules and no excipient was used in the finished product. Capsules were supplied in 60-mL, oblong, white pharmaceutical high density polyethylene (HDPE) bottles with white caps. Each 60-mL bottle contained 30 capsules of 200 or 500 mg scyllo-inositol.
The mean change from baseline to day 7 versus placebo was used to determine statistical significance. […] The ANCOVA looked at the change of uric acid levels in controls from starting levels of uric acid; the software used was SAS 9.1.3. […] The point estimate of 0.85 is a population parameter in dosed subjects.

[1] = 200 mg BID oral 7 days group, Baseline (Day 0)
[2] = 700 mg BID oral 7 days group, Baseline (Day 0)
[3] = 1500 mg BID oral 7 days group, Baseline (Day 0)
[4] = 1500 mg BID oral 7 days, Day 12
[5] = 3000 mg BID oral 7 days group, Baseline (Day 0)
[6] = 3000 mg BID oral 7 days, Day 12

Compound: O[C@H]1[C@H](O)[C@@H](O)[C@H](O)[C@@H](O)[C@@H]1O [scyllo-inositol, 1,2,3,4,5,6-cyclohexanehexyl, (1alpha,2beta,3alpha,4beta,5alpha,6beta)]
- uric acid, Max [1]: 458 micromole per liter
- uric acid, Median [1]: 318.2 micromole per liter
- uric acid, Min [1]: 149 micromole per liter
- uric acid, Mean [1]: 316.2 micromole per liter
- uric acid, Max (200 mg BID oral 7 days, Day 4): 410 micromole per liter
- uric acid, Max Change from Baseline (200 mg BID oral 7 days, Day 4): 54 micromole per liter
- uric acid, Mean Change from Baseline (200 mg BID oral 7 days, Day 4): −7.9 micromole per liter
- uric acid, Median (200 mg BID oral 7 days, Day 4): 330.1 micromole per liter
- uric acid, Median Change from Baseline (200 mg BID oral 7 days, Day 4): −11.9 micromole per liter
- uric acid, Min (200 mg BID oral 7 days, Day 4): 143 micromole per liter
- uric acid, Min Change from Baseline (200 mg BID oral 7 days, Day 4): −48 micromole per liter
- uric acid, Mean (200 mg BID oral 7 days, Day 4): 308.3 micromole per liter
- uric acid, Max (200 mg BID oral 7 days, Day 7): 387 micromole per liter
- uric acid, Max Change from Baseline (200 mg BID oral 7 days, Day 7): 18 micromole per liter
- uric acid, Mean Change from Baseline (200 mg BID oral 7 days, Day 7): −25.8 micromole per liter
- uric acid, Median (200 mg BID oral 7 days, Day 7): 333.1 micromole per liter
- uric acid, Median Change from Baseline (200 mg BID oral 7 days, Day 7): −17.8 micromole per liter
- uric acid, Min (200 mg BID oral 7 days, Day 7): 143 micromole per liter
- uric acid, Min Change from Baseline (200 mg BID oral 7 days, Day 7): −77 micromole per liter
- uric acid, Mean (200 mg BID oral 7 days, Day 7): 290.5 micromole per liter
- uric acid, Max (200 mg BID oral 7 days, Day 12): 476 micromole per liter
- uric acid, Max Change from Baseline (200 mg BID oral 7 days, Day 12): 59 micromole per liter
- uric acid, Median (200 mg BID oral 7 days, Day 12): 368.8 micromole per liter
- uric acid, Median Change from Baseline (200 mg BID oral 7 days, Day 12): 26.8 micromole per liter
- uric acid, Min (200 mg BID oral 7 days, Day 12): 184 micromole per liter
- uric acid, Min Change from Baseline (200 mg BID oral 7 days, Day 12): −12 micromole per liter
- uric acid, Mean (200 mg BID oral 7 days, Day 12): 342.0 micromole per liter
- uric acid, Max [2]: 410 micromole per liter
- uric acid, Median [2]: 258.7 micromole per liter
- uric acid, Min [2]: 161 micromole per liter
- uric acid, Mean [2]: 269.6 micromole per liter
- uric acid, Max (700 mg BID oral 7 days, Day 4): 351 micromole per liter
- uric acid, Max Change from Baseline (700 mg BID oral 7 days, Day 4): 0 micromole per liter
- uric acid, Mean Change from Baseline (700 mg BID oral 7 days, Day 4): −51.5 micromole per liter
- uric acid, Median (700 mg BID oral 7 days, Day 4): 175.5 micromole per liter
- uric acid, Median Change from Baseline (700 mg BID oral 7 days, Day 4): −62.5 micromole per liter
- uric acid, Min (700 mg BID oral 7 days, Day 4): 143 micromole per liter
- uric acid, Min Change from Baseline (700 mg BID oral 7 days, Day 4): −101 micromole per liter
- uric acid, Mean (700 mg BID oral 7 days, Day 4): 218.1 micromole per liter
- uric acid, Max (700 mg BID oral 7 days, Day 7): 309 micromole per liter
- uric acid, Max Change from Baseline (700 mg BID oral 7 days, Day 7): −12 micromole per liter
- uric acid, Mean Change from Baseline (700 mg BID oral 7 days, Day 7): −70.4 micromole per liter
- uric acid, Median (700 mg BID oral 7 days, Day 7): 169.5 micromole per liter
- uric acid, Median Change from Baseline (700 mg BID oral 7 days, Day 7): −83.3 micromole per liter
- uric acid, Min (700 mg BID oral 7 days, Day 7): 125 micromole per liter
- uric acid, Min Change from Baseline (700 mg BID oral 7 days, Day 7): −107 micromole per liter
- uric acid, Mean (700 mg BID oral 7 days, Day 7): 199.3 micromole per liter
- uric acid, Max (700 mg BID oral 7 days, Day 12): 410 micromole per liter
- uric acid, Max Change from Baseline (700 mg BID oral 7 days, Day 12): 30 micromole per liter
- uric acid, Mean Change from Baseline (700 mg BID oral 7 days, Day 12): −1.0 micromole per liter
- uric acid, Median (700 mg BID oral 7 days, Day 12): 237.9 micromole per liter
- uric acid, Median Change from Baseline (700 mg BID oral 7 days, Day 12): 3.0 micromole per liter
- uric acid, Min (700 mg BID oral 7 days, Day 12): 167 micromole per liter
- uric acid, Min Change from Baseline (700 mg BID oral 7 days, Day 12): −54 micromole per liter
- uric acid, Mean (700 mg BID oral 7 days, Day 12): 268.7 micromole per liter
- uric acid, Max [3]: 434 micromole per liter
- uric acid, Median [3]: 279.6 micromole per liter
- uric acid, Min [3]: 220 micromole per liter
- uric acid, Mean [3]: 303.3 micromole per liter
- uric acid, Max (1500 mg BID oral 7 days, Day 4): 291 micromole per liter
- uric acid, Max Change from Baseline (1500 mg BID oral 7 days, Day 4): 12 micromole per liter
- uric acid, Mean Change from Baseline (1500 mg BID oral 7 days, Day 4): −70.4 micromole per liter
- uric acid, Median (1500 mg BID oral 7 days, Day 4): 237.9 micromole per liter
- uric acid, Median Change from Baseline (1500 mg BID oral 7 days, Day 4): −71.4 micromole per liter
- uric acid, Min (1500 mg BID oral 7 days, Day 4): 155 micromole per liter
- uric acid, Min Change from Baseline (1500 mg BID oral 7 days, Day 4): −143 micromole per liter
- uric acid, Mean (1500 mg BID oral 7 days, Day 4): 233.0 micromole per liter
- uric acid, Max (1500 mg BID oral 7 days, Day 7): 256 micromole per liter
- uric acid, Max Change from Baseline (1500 mg BID oral 7 days, Day 7): −24 micromole per liter
- uric acid, Mean Change from Baseline (1500 mg BID oral 7 days, Day 7): −88.2 micromole per liter
- uric acid, Median (1500 mg BID oral 7 days, Day 7): 229.0 micromole per liter
- uric acid, Median Change from Baseline (1500 mg BID oral 7 days, Day 7): −77.3 micromole per liter
- uric acid, Min (1500 mg BID oral 7 days, Day 7): 155 micromole per liter
- uric acid, Min Change from Baseline (1500 mg BID oral 7 days, Day 7): −196 micromole per liter
- uric acid, Mean (1500 mg BID oral 7 days, Day 7): 215.1 micromole per liter
- uric acid, Max [4]: 399 micromole per liter
- uric acid, Max Change from Baseline [4]: 18 micromole per liter
- uric acid, Mean Change from Baseline [4]: −27.8 micromole per liter
- uric acid, Median [4]: 279.6 micromole per liter
- uric acid, Median Change from Baseline [4]: −29.7 micromole per liter
- uric acid, Min [4]: 196 micromole per liter
- uric acid, Min Change from Baseline [4]: −65 micromole per liter
- uric acid, Mean [4]: 275.6 micromole per liter
- uric acid, Max [5]: 363 micromole per liter
- uric acid, Median [5]: 300.4 micromole per liter
- uric acid, Min [5]: 226 micromole per liter
- uric acid, Mean [5]: 299.4 micromole per liter
- uric acid, Max (3000 mg BID oral 7 days, Day 4): 262 micromole per liter
- uric acid, Max Change from Baseline (3000 mg BID oral 7 days, Day 4): −59 micromole per liter
- uric acid, Mean Change from Baseline (3000 mg BID oral 7 days, Day 4): −83.3 micromole per liter
- uric acid, Median (3000 mg BID oral 7 days, Day 4): 226.0 micromole per liter
- uric acid, Median Change from Baseline (3000 mg BID oral 7 days, Day 4): −83.3 micromole per liter
- uric acid, Min (3000 mg BID oral 7 days, Day 4): 161 micromole per liter
- uric acid, Min Change from Baseline (3000 mg BID oral 7 days, Day 4): −107 micromole per liter
- uric acid, Mean (3000 mg BID oral 7 days, Day 4): 216.1 micromole per liter
- uric acid, Max (3000 mg BID oral 7 days, Day 7): 268 micromole per liter
- uric acid, Max Change from Baseline (3000 mg BID oral 7 days, Day 7): −71 micromole per liter
- uric acid, Mean Change from Baseline (3000 mg BID oral 7 days, Day 7): −85.3 micromole per liter
- uric acid, Median (3000 mg BID oral 7 days, Day 7): 214.1 micromole per liter
- uric acid, Median Change from Baseline (3000 mg BID oral 7 days, Day 7): −74.4 micromole per liter
- uric acid, Min (3000 mg BID oral 7 days, Day 7): 149 micromole per liter
- uric acid, Min Change from Baseline (3000 mg BID oral 7 days, Day 7): −131 micromole per liter
- uric acid, Mean (3000 mg BID oral 7 days, Day 7): 214.1 micromole per liter
- uric acid, Max [6]: 345 micromole per liter
- uric acid, Max Change from Baseline [6]: 18 micromole per liter
- uric acid, Mean Change from Baseline [6]: −29.7 micromole per liter
- uric acid, Median [6]: 270.6 micromole per liter
- uric acid, Median Change from Baseline [6]: −23.8 micromole per liter
- uric acid, Min [6]: 208 micromole per liter
- uric acid, Min Change from Baseline [6]: −83 micromole per liter
- uric acid, Mean [6]: 269.6 micromole per liter
- decreases from baseline in uric acid, dose-response (200-3000 mg BID oral 7 days, Day 7): a dose-response effect was not as apparent
- mean uric acid levels, relation to dose (200-3000 mg BID oral 7 days, Days 4 and 7, Day 12): dose-related decrease in mean uric acid levels was observed at Days 4 and 7, which partially resolved by Day 12
- mean difference (PLC-TRT) in change from baseline to day 7, point estimate (scyllo-inositol treated versus placebo, Day 7, ANCOVA): 0.85
